Assay results as given in patent US8912184B1, “Therapeutic and diagnostic methods” (Alzheimer's Institute of America, Inc., priority 2010, dated 2014).
Like-named read-outs stand apart in the source and are kept apart here.

Test system: cancer cell lines
Test: Standard Cytotoxicity Assay for other cancer cell types (TC50, CellTiter-Glo)
Format: cell-based
Settings: Homo sapiens
Method: Approximately 24 hours later, test compound was added from serial dilutions prepared in DMSO from DMSO stock solutions.

O=C(NCc1cccnc1)Nc1ccc(COc2ccccc2-c2ccccc2)cc1 [Exemplary Compound A, 1-{4-[(biphenyl-2-yloxy)methyl]phenyl}-3-(pyridin-3-ylmethyl)urea]
CC50 (HCC1937, 168 h, HCC1937 cells (breast), 7 day, read-out: Cmpd A 7 day TC50): 1.5 nM
CC50 (HCT-15, 72 h, HCT-15 (colon), 3 DAY, read-out: TC50 (the source's name)): 0.7 nM
CC50 (HCT-15, 168 h, HCT-15 (colon), 7 DAY, read-out: TC50 (the source's name)): 1 nM
CC50 (HCT-15, 168 h, HCT-15 cells (colon), 7 day, read-out: Cmpd A 7 day TC50): 1 nM
CC50 (HCT-116, 72 h, HCT116 (colon), 3 DAY, read-out: TC50 (the source's name)): 0.6 nM
CC50 (HCT-116, 72 h, HCT-116 cells (colon), 3 day, read-out: Cmpd A 3 day TC50): 0.2 to 4.4 nM
CC50 (HCT-116, 168 h, HCT116 (colon), 7 DAY, read-out: TC50 (the source's name)): 0.4 nM
CC50 (HCT-116, 168 h, HCT-116 cells (colon), 7 day, read-out: Cmpd A 7 day TC50): 0.4 nM
CC50 (HL-60, 72 h, HL-60 cells (myelogenous leukemia), 3 day, read-out: Cmpd A 3 day TC50): 5.3 nM
CC50 (HOP-62, 72 h, HOP62 cells (lung (NSCLC)), 3 day, read-out: Cmpd A 3 day TC50): 4 nM
CC50 (HOP-92, 72 h, HOP92 (NSCLC), 3 DAY, read-out: TC50 (the source's name)): 17 nM
CC50 (HOP-92, 72 h, HOP92 cells (lung (NSCLC)), 3 day, read-out: Cmpd A 3 day TC50): 17 nM
CC50 (HOP-92, 168 h, HOP92 (NSCLC), 7 DAY, read-out: TC50 (the source's name)): 4.3 nM
CC50 (HOP-92, 168 h, HOP92 cells (lung (NSCLC)), 7 day, read-out: Cmpd A 7 day TC50): 4.3 nM
CC50 (HOS, 72 h, HOS cells (osteosarcoma), 3 day, read-out: Cmpd A 3 day TC50): < 0.8 nM
CC50 (HT-29, 72 h, HT29 (colon), 3 DAY, read-out: TC50 (the source's name)): 1.4 nM
CC50 (HT-29, 72 h, HT29 cells (colon), 3 day, read-out: Cmpd A 3 day TC50): 1.4 nM
CC50 (HT-29, 168 h, HT29 (colon), 7 DAY, read-out: TC50 (the source's name)): 1.1 nM
CC50 (HT-29, 168 h, HT29 cells (colon), 7 day, read-out: Cmpd A 7 day TC50): 1.1 nM
CC50 (HT-1080, 72 h, HT1080 (sarcoma), 3 DAY, read-out: TC50 (the source's name)): 1 nM
CC50 (HT-1080, 72 h, HT1080 cells (fibrosarcoma), 3 day, read-out: Cmpd A 3 day TC50): 1 nM
CC50 (HT-1080, 168 h, HT1080 (sarcoma), 7 DAY, read-out: TC50 (the source's name)): 0.6 nM
CC50 (HT-1080, 168 h, HT1080 cells (fibrosarcoma), 7 day, read-out: Cmpd A 7 day TC50): 0.6 nM
CC50 (IGROV-1, 72 h, IGR-OV1 cells (ovary), 3 day, read-out: Cmpd A 3 day TC50): 2 nM
CC50 (JJN-3, 72 h, JJN3 cells (myeloma (plasma cell leukemia)), 3 day, read-out: Cmpd A 3 day TC50): 0.9 nM
CC50 (K562, 72 h, K562 cells (myelogenous leukemia), 3 day, read-out: Cmpd A 3 day TC50): 5.7 nM
CC50 (KARPAS-299, 72 h, KARPAS-299 cells (lymphocytic leukemia), 3 day, read-out: Cmpd A 3 day TC50): 20 nM
CC50 (KINGS-1, 72 h, KINGS-1 cells (brain, anaplastic astrocytoma (glioma)), 3 day, read-out: Cmpd A 3 day TC50): 2 nM
CC50 (KM12, 72 h, KM12 (colon), 3 DAY, read-out: TC50 (the source's name)): 0.9 nM
CC50 (KM12, 72 h, KM12 cells (colon), 3 day, read-out: Cmpd A 3 day TC50): 0.9 nM
CC50 (KM12, 168 h, KM12 (colon), 7 DAY, read-out: TC50 (the source's name)): 0.4 nM
CC50 (KM12, 168 h, KM12 cells (colon), 7 day, read-out: Cmpd A 7 day TC50): 0.4 nM
CC50 (LOX IMVI, 72 h, LOX-IMVI cells (melanoma), 3 day, read-out: Cmpd A 3 day TC50): 15 nM
CC50 (MCF7, 72 h, MCF7 cells (breast), 3 day, read-out: Cmpd A 3 day TC50): 2.2 nM
CC50 (MDA-MB-231, 72 h, MDA-MB-231 (breast), 3 DAY, read-out: TC50 (the source's name)): 10 nM
CC50 (MDA-MB-231, 168 h, MDA-MB-231 (breast), 7 DAY, read-out: TC50 (the source's name)): 7.5 nM
CC50 (MDA-MB-231, 168 h, MDA-MB-231 cells (breast), 7 day, read-out: Cmpd A 7 day TC50): 8 nM
CC50 (MDA-MB-436, 72 h, MDA-MB-436 cells (breast), 3 day, read-out: Cmpd A 3 day TC50): 17 nM
CC50 (MIA PaCa-2, 72 h, MIA PaCa-2 (pancreatic), 3 DAY, read-out: TC50 (the source's name)): 1.8 nM
CC50 (MIA PaCa-2, 72 h, MiaPaCa2 cells (pancreas), 3 day, read-out: Cmpd A 3 day TC50): 1.8 nM
CC50 (MIA PaCa-2, 168 h, MIA PaCa-2 (pancreatic), 7 DAY, read-out: TC50 (the source's name)): 0.4 nM
CC50 (MIA PaCa-2, 168 h, MiaPaCa2 cells (pancreas), 7 day, read-out: Cmpd A 7 day TC50): 0.4 nM
CC50 (MM1.S, 72 h, MM.1S cells (myeloma), 3 day, read-out: Cmpd A 3 day TC50): 1.2 nM
